Source: patent US20210309669A1, “Heterocyclic Spiro Compounds As MAGL Inhibitors” (Pfizer Inc., priority 2018, published 2021)
Where two headings read alike, the source gives them in different places.

Tests used:
[1] = target: T1, human recombinant Monoacylglycerol Lipase (Homo sapiens, UniProt Q99685); test: MAGL inhibition enzymatic assay (7-HCA fluorogenic substrate); assay type: biochemical; conditions: geometric mean
T1 sequence (Q99685 1-303): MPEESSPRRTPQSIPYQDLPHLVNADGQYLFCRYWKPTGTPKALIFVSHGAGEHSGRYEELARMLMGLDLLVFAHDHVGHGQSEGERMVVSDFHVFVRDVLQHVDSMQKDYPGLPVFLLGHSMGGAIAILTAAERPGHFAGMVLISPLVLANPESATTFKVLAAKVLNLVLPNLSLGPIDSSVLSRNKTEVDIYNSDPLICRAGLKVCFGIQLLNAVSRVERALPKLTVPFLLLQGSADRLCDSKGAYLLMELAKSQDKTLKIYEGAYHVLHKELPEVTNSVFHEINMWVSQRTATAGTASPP
Description: (§1) Assessment of MAGL inhibition utilizes human recombinant Monoacylglycerol Lipase and the fluorogenic substrate 7-hydroxycoumarinyl arachidonate (7-HCA, Biomol ST-502). 400 nL of a test compound at decreasing concentration (ranging from 150 μM down to 1.5 nM) was spotted into a 384-well back plate (PerkinElmer, 6007279) using a Labcyte Echo, followed by addition of 10 μL of MAGL enzyme in assay buffer (50 mM HEPES, pH 7.4, 100 mM NaCl, 5 mM MgCl2, 0.1% Triton X-100 and 25% glycerin). An equal volume of 7-HCA in assay buffer with 10% DMSO was added either immediately (T=0 min) or after a 30 minute incubation (T=30 min) to initiate the reaction. The final concentration of MAGL enzyme was […] and 7-HCA substrate was 5 μM. After these dilutions, the final concentration of the test compound ranged from 3 μM to 0.03 nM. The reaction was allowed to progress for 60 minutes, after which the plate was read at an Ex/Em of 340/465. Percent inhibitions were calculated based on control wells containing no compound (0% inhibition) and a control compound (e.g., a MAGL inhibitor whose activity is known or was previously reported in the literature, such as one with about 100% inhibition). IC50 values were generated based on a four parameter fit model using ABASE software from IDBS. See e.g., Wang, Y. et al., “A Fluorescence-Based Assay for Monoacylglycerol Lipase Compatible with Inhibitor Screening,” Assay and Drug Development Technologies, 2008, Vol. 6 (3) pp 387-393 (reporting an assay for measuring MAGL activity).

[2] = target: T2, human recombinant FAAH (Homo sapiens, UniProt O00519); test: FAAH inhibition enzymatic assay (Arachidonoyl-AMC substrate); assay type: biochemical; conditions: 30 minute incubation; geometric mean; read-out: FAAH (T = 30 min) IC50
T2 construct: purchased Cayman 10010183
T2 sequence (O00519 1-579): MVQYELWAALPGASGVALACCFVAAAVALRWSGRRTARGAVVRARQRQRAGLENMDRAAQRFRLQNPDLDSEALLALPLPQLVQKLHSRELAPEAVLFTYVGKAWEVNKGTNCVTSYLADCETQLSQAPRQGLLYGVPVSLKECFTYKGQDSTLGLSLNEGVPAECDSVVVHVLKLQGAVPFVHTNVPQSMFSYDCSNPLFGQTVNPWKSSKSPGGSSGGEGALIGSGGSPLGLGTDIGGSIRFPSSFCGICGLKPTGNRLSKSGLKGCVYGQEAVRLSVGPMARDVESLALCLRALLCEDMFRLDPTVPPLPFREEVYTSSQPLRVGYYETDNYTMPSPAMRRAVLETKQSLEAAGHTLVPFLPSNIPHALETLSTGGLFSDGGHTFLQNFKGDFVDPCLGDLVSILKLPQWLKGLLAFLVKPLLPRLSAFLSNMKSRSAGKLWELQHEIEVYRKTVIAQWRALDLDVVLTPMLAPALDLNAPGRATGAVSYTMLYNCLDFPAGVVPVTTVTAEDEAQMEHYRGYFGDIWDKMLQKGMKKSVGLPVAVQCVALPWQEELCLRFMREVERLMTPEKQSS
Description: Assessment of FAAH inhibition utilizes human recombinant FAAH and the fluorescent substrate, Arachidonoyl-AMC. 400 nL of a test compound at decreasing concentrations was spotted into a 384-well back plate (PerkinElmer, 6007279) using a Labcyte Echo, followed by addition of 10 μl of FAAH enzyme (Cayman 10010183) in assay buffer (50 mM Tris, pH 9.0, 1 mM EDTA, i.e. ethylenediaminetetraacetic acid). After a 30 minute incubation at room temperature, 10 μL of Arachidonyl-AMCA was added in assay buffer with 16% DMSO. […] The reaction was allowed to progress for 60 minutes, after which the plate was read on a Molecular Devices FlexStation reader at an Ex/Em of 355/460. Percent inhibitions were calculated based on controls wells containing either no compound (0% inhibition) or a control compound (e.g., an FAAH inhibitor whose activity is known or was previously reported in the literature, such as one with about 100% inhibition). IC50 values were generated based on a four parameter fit model using ABASE software from IDBS.

[3] = target: T1, human recombinant Monoacylglycerol Lipase; test: MAGL inactivation (enzyme progress curves, kinact/KI); assay type: biochemical; conditions: geometric mean
Description: as §1
To measure MAGL inactivation, the same protocol for the (T=0 min) MAGL inhibition IC50 assay was performed with data collected every minute to acquire enzyme progress curves at decreasing concentrations of compound.

[4] = Dynamic vapor sorption (hygroscopicity); assay type: physicochemical; conditions: 25° C.
Description: (§2) An automated vapor sorption analyzer (VTI SGA-CX; VTI scientific) was used to measure the hygroscopicity of the anhydrate of Form I of the invention. The microbalance was calibrated using a 100 mg standard weight. The relative humidity sensor was calibrated at 5.0, 11.3, 32.8, 52.8, 75.3, and 84.3% RH (25° C.) using saturated salt solutions, as well as 80% RH (25° C.) using polyvinylpyrrolidone. Approximately 8-10 mg of the powder sample was placed in the platinum sample pan and dried at 3% relative humidity (RH) at 25° C. with a heating rate of 1° C. per minute. The attainment of equilibrium was assumed when the weight change of the sample was <0.001 wt % in 5 min or by a maximum equilibration time of 120 minutes. […] Again, the attainment of equilibrium was assumed when the weight change of the sample was <0.001 wt % in 5 min or by a maximum equilibration time of 120 minutes. The weight gain at the end of the sorption cycle (90% RH) was calculated on the basis of the dry weight.
as §2, with “Moisture/Water sorption and desorption studies were conducted on automated” for “An automated”, “analyzer (TA instruments Q5000 SA).” for “analyzer (VTI SGA-CX; VTI scientific) was used to measure the hygroscopicity of the anhydrate of Form I of the invention.”, “salt solutions.” for “salt solutions, as well as 80% RH (25° C.) using polyvinylpyrrolidone.”, “Approximately 10-20” for “Approximately 8-10”, “at ≤3%” for “at 3%”, “C.” for “C. with a heating rate of 1° C. per minute.”

[5] = In vitro intrinsic clearance in human liver microsomes (HLM); assay type: in vitro ADME; conditions: pH 7.4, 1 μM substrate, NADPH, 37° C., read-out: HLM CLint, app
Description: Test Compounds (Example 1-3 and Comparative-Compounds 1-4) were prepared as solutions in DMSO. The final concentration of DMSO in the incubation was <0.1% (v/v). […] (all final concentrations) in a 384-well plate. The reaction mixture was pre-warmed at 37° C. for 10 min prior to initiation of the incubation. The incubation was quenched with acetonitrile containing internal standards at the following time points: 1, 4, 7, 12, 20, 25, 45, and 60 min (individual incubation plates per time point) with a subsequent addition of water. The samples were vortexed followed by centrifugation and the supernatant was analyzed by LC/MS-MS using multiple reaction monitoring. For control experiments, NADPH was omitted from the incubations.
The microsomal t½ (min) was obtained from a log-linear plot of the substrate depletion versus incubation time and was scaled to hepatic intrinsic clearance (CLint,app (μL/min/mg protein) using the following equation: […]

[6] = In vitro intrinsic clearance in human hepatocytes; assay type: in vitro ADME; conditions: 1 μM substrate, human hepatocytes 0.5 million viable cells per mL, 37° C.
Description: Test Compounds (Example 1-3 and Comparative-Compounds 1-4) were prepared as solutions in DMSO at 3 mM which were then diluted in media containing WEM. The final concentration of DMSO in the incubation was 0.03% (v/v). The in vitro half-life (t½) of each compound was determined in incubations containing substrate (1 μM), human hepatocytes (0.5 million viable cells per mL final concentration) in media containing WEM, 50 mM HEPES buffer (pH 7.4), and 26 mM sodium bicarbonate at 37° C. (all final concentrations) in a 96-well plate. The reaction mixture was pre-warmed at 37° C. for 30 min prior to the initiation of the incubation. The incubation was quenched with acetonitrile containing internal standards at the following time points: 0, 5, 15, 30, 60, 120, and 240 min (individual incubation plates per time point). The samples were vortexed followed by centrifugation. An aliquot of supernatant was transferred to a clean 96-well plate and analyzed by LC/MS-MS using multiple reaction monitoring. For control experiments, hepatocytes were omitted from the incubations.
The hepatocyte t½ (min) was obtained from a log-linear plot of the substrate depletion versus incubation time and was scaled to hepatic intrinsic clearance (CLint,app (μL/min/million cells) using the following equation: […]

[7] = 30 minute incubation before substrate, read-out: MAGL (T = 30 min) IC50
[8] = substrate added immediately (T=0 min), read-out: MAGL (T = 0 min) IC50

SMILES | IC50 [1, 7] [nM] | IC50 [1, 8] [nM] | IC50 [2] [nM] | MAGL kinact/KI [3] | DVS weight gain ([4]; 0-60% RH) | DVS weight gain ([4]; 60% RH) | DVS weight gain ([4]; 75% RH) | DVS weight gain ([4]; 90% RH) | DVS weight gain ([4]; at up to 90% RH) | microsomal CLint at 1 μM [5] [µL/min/mg] | HHEPs CLint, app [6] [μL/min/million]
O=C(OC(C(F)(F)F)C(F)(F)F)N1CCC2(CCC(NS(=O)(=O)CC3CC3)CO2)CC1 (single isomer, unassigned; ent-2) [Example 5, 1,1,1,3,3,3-Hexafluoropropan-2-yl 3-{[(cyclopropylmethyl)sulfonyl]amino}-1-oxa-9-azaspiro[5.5]undecane-9-carboxylate, ENT-2] | 10.1 | 103 | > 30000 | 6930 1/s per M |  |  |  |  |  |  | 
O=C(OC(C(F)(F)F)C(F)(F)F)N1CCC2(CC1)C[C@@H](NS(=O)(=O)CC1CC1)CO2 [Form I, 1,1,1,3,3,3-Hexafluoropropan-2-yl (3R)-3-{[(cyclopropylmethyl)sulfonyl]amino}-1-oxa-8-azaspiro[4.5]decane-8-carboxylate] |  |  |  |  | 0-60% RH, 25° C.: <0.1% weight gain | 60% RH, 25° C.: <0.1% weight gain | 75% RH, 25° C.: <0.1% weight gain | 90% RH, 25° C.: <0.1% weight gain | less than 0.1% |  | 
O=C(OC(C(F)(F)F)C(F)(F)F)N1CCC2(CC1)C[C@@H](NS(=O)(=O)c1ccccc1)CO2 [Comparative-Compound 4, 1,1,1,3,3,3-hexafluoropropan-2-yl (3R)-3-[(phenylsulfonyl)amino]-1-oxa-8-azaspiro[4.5]decane-8-carboxylate] |  |  |  |  |  |  |  |  |  | 30.4 | 27.5
O=C(OC(C(F)(F)F)C(F)(F)F)N1CCC2(CC1)C[C@@H](NS(=O)(=O)C1CC1)CO2 [Form A, 1,1,1,3,3,3-hexafluoropropan-2-yl(3R)-3-[(cyclopropylsulfonyl)amino]-1-oxa-8-azaspiro[4.5]decane-8-carboxylate] |  |  |  |  | 0-60% RH, 25° C.: <0.1% weight gain | 60% RH, 25° C.: <0.1% weight gain | 75% RH, 25° C.: <0.1% weight gain | 90% RH, 25° C.: <0.1% weight gain | less than 0.1% |  | 
O=C(OC(C(F)(F)F)C(F)(F)F)N1CCC2(CCC(NS(=O)(=O)CC3CC3)CO2)CC1 (single isomer, unassigned; ent-1) [Example 4, 1,1,1,3,3,3-Hexafluoropropan-2-yl 3-{[(cyclopropylmethyl)sulfonyl]amino}-1-oxa-9-azaspiro[5.5]undecane-9-carboxylate, ENT-1] | 20 | 162 | > 30000 | 3110 1/s per M |  |  |  |  |  |  | 
